Here are results for three molecules from patent publication US20250129018A1, “PLEUROMUTILIN DERIVATIVES CONTAINING CYCLOALKYL GROUP AND PREPARATION METHODS AND APPLICATIONS THEREOF” (priority 2023, published 2025).

What all share (experiment): MIC, two-fold serial dilution method
The subject of one experiment is MRSA-337371. Format: cell-based, Methicillin-resistant Staphylococcus aureus. The note with it: MRSA-337371. The procedure: (§1) The pleuromutilin derivatives 1-4 prepared from Example 9 of the present disclosure were determined for their effect on Methicillin-resistant Staphylococcus aureus, Methicillin-resistant Staphylococcus epidermidis, standard strains of Staphylococcus aureus (S. aureus-29213 and S. aureus-25923), clinical strains 1-48 of S. aureus, Escherichia coli, S. agalactiae and S. dysgalactiae equisimilis (S. dysgalactiae-1, S. dysgalactiae-2, S. dysgalactiae-3) and minimum inhibitory concentration (MIC) using a two-fold serial dilution method, and the results were shown in Table 1, Table 2 and Table 3. The standard strains are commercially available from ATCC, and the clinical strains are preserved by Lanzhou Institute of Husbandry and Pharmaceutical Science of Chinese Academy of Agricultural Sciences (Lanzhou, Gansu, China).

Another experiment concerns E. coli-25922. Format: cell-based, Escherichia coli. To be noted: E. coli-25922. The procedure: as §1
The subject of the next experiment is S. agalactiae-1. Format: cell-based. To be noted: S. agalactiae-1. The procedure: as §1
The next experiment deals with S. dysgalactiae-2. Format: cell-based, S. dysgalactiae equisimilis. To be noted: S. dysgalactiae-2. The procedure: as §1
The test system of a further experiment is S. dysgalactiae-3. Format: cell-based, S. dysgalactiae equisimilis. The note with it: S. dysgalactiae-3. The procedure:
as §1

Another experiment deals with S. dysgalactiae-1. Format: cell-based, S. dysgalactiae equisimilis. The note with it: S. dysgalactiae-1. The procedure:
as §1

Another experiment deals with S. aureus-29213. Type of experiment: cell-based, Staphylococcus aureus. To be noted: S. aureus-29213. The procedure: as §1
In another experiment the test system is S. aureus-25923. Type of experiment: cell-based, Staphylococcus aureus. The note with it: S. aureus-25923. The procedure: as §1
The next experiment deals with MRSE. Type of experiment: cell-based, Methicillin-resistant Staphylococcus epidermidis. The procedure:
as §1

Each structure is given as a SMILES string. In brackets after ≈: the same amount, converted by molar mass.

As to `C=CC1(C)CC(OC(=O)CSC(C)(C)CNC(=O)C2CCCC2)C2(C)C(C)CCC3(CCC(=O)C32)C(C)C1O` (stereo not drawn) [derivative 3], the minimum inhibitory concentration was 0.25 µg/mL (≈ 0.445 µM) in the experiment with MRSA-337371; over 16 µg/mL with E. coli-25922; 0.125 µg/mL (≈ 0.222 µM) in the experiment with S. agalactiae-1; 0.125 µg/mL (≈ 0.222 µM) in the experiment on S. dysgalactiae-2; 0.125 µg/mL (≈ 0.222 µM) with S. dysgalactiae-3; 0.125 µg/mL (≈ 0.222 µM) with S. dysgalactiae-1. For the same molecule, the minimum inhibitory concentration in the experiment with S. aureus-29213 was found to be 0.125 µg/mL (≈ 0.222 µM); in the experiment with S. aureus-25923 it was 0.125 µg/mL (≈ 0.222 µM); with MRSE, 0.25 µg/mL (≈ 0.445 µM).

Regarding `C=CC1(C)CC(OC(=O)CSC(C)(C)CNC(=O)C2CCCCC2)C2(C)C(C)CCC3(CCC(=O)C32)C(C)C1O` (stereo not drawn) [derivative 4], the minimum inhibitory concentration was 0.125 µg/mL (≈ 0.217 µM) with MRSA-337371; over 16 µg/mL in the experiment with E. coli-25922; 0.125 µg/mL (≈ 0.217 µM) with S. agalactiae-1; 0.125 µg/mL (≈ 0.217 µM) with S. dysgalactiae-2; 0.125 µg/mL (≈ 0.217 µM) in the experiment on S. dysgalactiae-3; 0.125 µg/mL (≈ 0.217 µM) in the experiment with S. dysgalactiae-1. The values for the minimum inhibitory concentration with S. aureus-29213, in the experiment with S. aureus-25923 and in the experiment with MRSE were 0.125 µg/mL (≈ 0.217 µM), 0.125 µg/mL (≈ 0.217 µM) and 0.25 µg/mL (≈ 0.434 µM), respectively.

With `C=CC1(C)CC(OC(=O)CSC(C)(C)CNC(=O)C2CC2)C2(C)C(C)CCC3(CCC(=O)C32)C(C)C1O` (stereo not drawn) [derivative 1], the minimum inhibitory concentration in the experiment on MRSA-337371 was 0.031 µg/mL (≈ 0.0581 µM); in the experiment with E. coli-25922, over 16 µg/mL; in the experiment on S. agalactiae-1, 0.031 µg/mL (≈ 0.0581 µM); in the experiment on S. dysgalactiae-2, 0.031 µg/mL (≈ 0.0581 µM); in the experiment on S. dysgalactiae-3, 0.031 µg/mL (≈ 0.0581 µM); in the experiment with S. dysgalactiae-1, 0.031 µg/mL (≈ 0.0581 µM). Further, the minimum inhibitory concentration with S. aureus-29213, in the experiment on S. aureus-25923 and in the experiment on MRSE was 0.031 µg/mL (≈ 0.0581 µM) throughout.
